Legend:
[1] = Half life in mouse plasma at 10 umol/L measured up to 4 hrs by mass spectrometry; type: ADME, cell-free
[2] = Induction of neurite growth in rat hippocampal neurons incubated for 48 hrs by high content analysis; type: functional, cell-based; conditions: Hippocampal neurone
[3] = Induction of rat DRG neuron growth assessed as increase in total neurite length at 1 uM incubated for 24 hrs by […] staining based assay relative to control; type: functional
Rattus norvegicus = test: Induction of optic nerve axon regeneration in Sprague-Dawley rat model of optic nerve crush injury assessed as increase in average length of the longest regenerating axons at 100 uM administered intravitreally on day 3,7 and 10 post injury and measured on day 13 post injury by Alexa Fluor 488/CTB-488 staining based confocal microscopic analysis relative to control; type: functional
[4] = Induction of CSPG-treated C57BL/6J mouse DRG neuron growth at 25 uM incubated for 24 hrs by Alexa Fluor 488 staining based assay relative to control; type: functional
[5] = Induction of CSPG-treated human induced sensory neuron growth at 2 uM for 24 hrs by immunostaining method relative to control; type: functional

For `COc1ccc(O)c(C(=O)c2ccc(C(=O)O[C@@H]3CCCNC[C@H]3NC(=O)c3ccncc3)cc2)c1F`, the half-life at 10 µM [1] was < 1 min.
In the case of `O=S(=O)(c1cccc2c(I)cccc12)N1CCCNCC1`, the EC50 [2] is reported as 74 nM.
Compound `Cc1ccc(-c2nc(NCCOCCOCCN)nc(N3CCN(c4ccccn4)CC3)n2)cc1` has an Activity [3] of 50% and an Activity (Rattus norvegicus) of 56%.
For `COc1ccc([C@@H]2Sc3ccccc3N(CCN(C)C)C(=O)[C@@H]2OC(C)=O)cc1` [DILTIAZEM], the “fold change (FC)” value [4] was 2 and the “fold change (FC)” value [5] was 1.5.

Source: ChEMBL document CHEMBL4376819, “The Rise of Molecules Able To Regenerate the Central Nervous System” (J Med Chem, 2020)
